Where “and” joins values, the source holds several entries; their conditions need not be identical. Equal values may be shown once. Toxic doses and inconclusive results are not listed.

In PubChem BioAssay AID248 (DTP/NCI, 2004) one finds T/C data, which are given here for twelve compounds.

In the experiment the test system is L1210 leukemia ip in BDF1 mice, survival T/C. The experiment is described as follows: NCI In Vivo Anticancer Drug Screen. Data for tumor model L1210 Leukemia (intraperitoneal) in B6D2F1 (BDF1) mice. As to conditions: endpoint: mean survival time, higher = longer survival. The essentials:
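Value reflects the ratio of survival in compound-treated mice to survival in vehicle-treated controls, with both groups carrying the same transplanted tumor.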

The mark [1] stands for this setting: dose: 50.0 mg/kg/injection, schedule: Q01DX001 (ip), vehicle: carboxymethylcellulose (CMC).
Setting [2] is: dose: 100.0 mg/kg/injection, schedule: Q01DX001 (ip), vehicle: carboxymethylcellulose (CMC).
[3] abbreviates: dose: 200.0 mg/kg/injection, schedule: Q01DX001 (ip), vehicle: carboxymethylcellulose (CMC).
[4] abbreviates: dose: 400.0 mg/kg/injection, schedule: Q01DX001 (ip), vehicle: carboxymethylcellulose (CMC).
[5] abbreviates: dose: 100.0 mg/kg/injection, schedule: Q01DX001 (ip), vehicle: saline.
Setting [6] is: dose: 400.0 mg/kg/injection, schedule: Q01DX001 (ip), vehicle: saline.
The mark [7] stands for this setting: dose: 200.0 mg/kg/injection, schedule: Q04DX003 (ip), vehicle: saline.
The mark [8] stands for this setting: dose: 400.0 mg/kg/injection, schedule: Q04DX003 (ip), vehicle: saline.

In the case of `CN=C(NCCCOC)c1ccc(NC(=O)c2ccc(C(=O)Nc3ccc(C(=NC)NCCCOC)cc3)c([N+](=O)[O-])c2)cc1`, the T/C is 91 % of control (dose: 1.0 mg/kg/injection, schedule: Q01DX Z (ip), vehicle: carboxymethylcellulose (CMC)); 92 % of control (dose: 1.88 mg/kg/injection, schedule: Q01DX Z (ip), vehicle: saline); 91 % of control (dose: 2.0 mg/kg/injection, schedule: Q01DX Z (ip), vehicle: carboxymethylcellulose (CMC)); 98 % of control (dose: 3.75 mg/kg/injection, schedule: Q01DX Z (ip), vehicle: saline); 92 % of control (dose: 4.0 mg/kg/injection, schedule: Q01DX Z (ip), vehicle: carboxymethylcellulose (CMC)); 104 % of control (dose: 7.5 mg/kg/injection, schedule: Q01DX Z (ip), vehicle: saline). Besides, the T/C is 95 % of control (dose: 8.0 mg/kg/injection, schedule: Q01DX Z (ip), vehicle: carboxymethylcellulose (CMC)); 101 % of control (dose: 15.0 mg/kg/injection, schedule: Q01DX Z (ip), vehicle: carboxymethylcellulose (CMC)); 92 % of control (dose: 15.0 mg/kg/injection, schedule: Q01DX Z (ip), vehicle: saline).
Consider `COc1ccc(CN2CCCN(Cc3ccc(OC)cc3OC)C2c2cc([N+](=O)[O-])ccc2O)c(OC)c1`, for which the T/C was 107 % of control under setting [1], 98 % of control under setting [2], 101 % of control under setting [3] and 98 % of control under setting [4].
On to `CCOC(=O)C(C(=O)OCC)c1ccc(Cl)cc1`, for which the T/C is, setting by setting: (dose: 50.0 mg/kg/injection, schedule: Q01DX001 (ip), vehicle: saline) 101 % of control; under setting [5], 101 % of control; (dose: 200.0 mg/kg/injection, schedule: Q01DX001 (ip), vehicle: saline) 101 % of control; under setting [6], 106 % of control.
For `CNC(=N)c1ccc(NC(=N)c2ccc(NC(=N)c3ccc(NC(=N)c4ccc(C(=N)NC)cc4)cc3)cc2)cc1`, the T/C is, setting by setting: (dose: 4.4 mg/kg/injection, schedule: Q01DX015 (sc), vehicle: water) 102 % of control; (dose: 5.5 mg/kg/injection, schedule: Q01DX Z (ip), vehicle: water) 116 % of control; (dose: 6.7 mg/kg/injection, schedule: Q01DX015 (sc), vehicle: water) 107 % of control; (dose: 7.5 mg/kg/injection, schedule: Q01DX001 (ip), vehicle: water) 104 % of control; (dose: 10.0 mg/kg/injection, schedule: Q01DX015 (sc), vehicle: water) 112 % of control; (dose: 15.0 mg/kg/injection, schedule: Q01DX001 (ip), vehicle: water) 106 % of control. In addition, the T/C reads like this: (dose: 16.0 mg/kg/injection, schedule: Q01DX015 (ip), vehicle: water) 216 % of control; (dose: 22.0 mg/kg/injection, schedule: Q01DX Z (ip), vehicle: water) 191 % of control; (dose: 22.5 mg/kg/injection, schedule: Q01DX015 (sc), vehicle: water) 184 % of control; (dose: 30.0 mg/kg/injection, schedule: Q01DX001 (ip), vehicle: water) 106 % of control; (dose: 44.0 mg/kg/injection, schedule: Q01DX Z (ip), vehicle: water) 100 % of control.
Take `CCc1n[nH]c(=S)n1N`: the T/C is, setting by setting: (dose: 12.5 mg/kg/injection, schedule: Q04DX003 (ip), vehicle: Klucel (hydroxypropylcellulose) (HPC)) 94 % of control; (dose: 25.0 mg/kg/injection, schedule: Q04DX003 (ip), vehicle: Klucel (hydroxypropylcellulose) (HPC)) 89 % of control; (dose: 50.0 mg/kg/injection, schedule: Q04DX003 (ip), vehicle: Klucel (hydroxypropylcellulose) (HPC)) 96 % of control.
In the case of `O=C(OC1COC(OC(=O)c2ccccc2)C(OC(=O)c2ccccc2)C1OC(=O)c1ccccc1)c1ccccc1` (stereo not drawn), the T/C by setting is: under setting [1], 96 % of control; (dose: 100.0 mg/kg/injection, schedule: Q01DX001 (ip), vehicle: Klucel (hydroxypropylcellulose) (HPC)) 102 % of control; (dose: 100.0 mg/kg/injection, schedule: Q01DX001 (ip), vehicle: acetone) 92 % of control; under setting [2], 102 % of control and 103 % of control; under setting [5], 90 % of control; (dose: 200.0 mg/kg/injection, schedule: Q01DX001 (ip), vehicle: Klucel (hydroxypropylcellulose) (HPC)) 102 % of control. The T/C is, setting by setting: (dose: 200.0 mg/kg/injection, schedule: Q01DX001 (ip), vehicle: acetone) 88 % of control; under setting [3], 94 % of control and 91 % of control; (dose: 400.0 mg/kg/injection, schedule: Q01DX001 (ip), vehicle: Klucel (hydroxypropylcellulose) (HPC)) 109 % of control; (dose: 400.0 mg/kg/injection, schedule: Q01DX001 (ip), vehicle: acetone) 90 % of control; under setting [4], 94 % of control; under setting [6], 95 % of control.
`Cc1cc(C)cc(OCC2CNC(=O)O2)c1` (stereo not drawn): the T/C is 101 % of control (dose: 25.0 mg/kg/injection, schedule: Q01DX009 (ip), vehicle: Klucel (hydroxypropylcellulose) (HPC)); 90 % of control (dose: 25.0 mg/kg/injection, schedule: Q04DX003 (ip), vehicle: saline); 114 % of control (dose: 50.0 mg/kg/injection, schedule: Q01DX009 (ip), vehicle: Klucel (hydroxypropylcellulose) (HPC)); 92 % of control (dose: 50.0 mg/kg/injection, schedule: Q04DX003 (ip), vehicle: saline); 100 % of control (dose: 100.0 mg/kg/injection, schedule: Q01DX009 (ip), vehicle: Klucel (hydroxypropylcellulose) (HPC)); 100 % of control (dose: 200.0 mg/kg/injection, schedule: Q01DX009 (ip), vehicle: Klucel (hydroxypropylcellulose) (HPC)). For the same compound, the T/C under setting [7] is 90 % of control; the T/C (dose: 400.0 mg/kg/injection, schedule: Q01DX009 (ip), vehicle: Klucel (hydroxypropylcellulose) (HPC)) was 103 % of control; the T/C under setting [8] was 113 % of control.
For `COc1cc(/C=C\C(=O)c2ccccc2)c([N+](=O)[O-])cc1OC`, the T/C by setting is: (dose: 100.0 mg/kg/injection, schedule: Q01DX001 (ip), vehicle: water) 90 % of control; (dose: 200.0 mg/kg/injection, schedule: Q01DX001 (ip), vehicle: water) 88 % of control; (dose: 400.0 mg/kg/injection, schedule: Q01DX001 (ip), vehicle: water) 90 % of control.
For `[Co+2].[NH-]c1ccccc1C(=O)O.[NH-]c1ccccc1C(=O)O`, the T/C runs as follows: (dose: 100.0 mg/kg/injection, schedule: Q01DX009 (ip), vehicle: saline with Tween-80) 94 % of control; (dose: 200.0 mg/kg/injection, schedule: Q01DX009 (ip), vehicle: saline with Tween-80) 93 % of control; (dose: 400.0 mg/kg/injection, schedule: Q01DX009 (ip), vehicle: saline with Tween-80) 86 % of control.
As to `N#CC12CC3CC(CC(C3)C1)C2`, the T/C by setting is: (dose: 5.0 mg/kg/injection, schedule: Q01DX009 (ip), vehicle: saline with Tween-80) 104 % of control; (dose: 10.0 mg/kg/injection, schedule: Q01DX009 (ip), vehicle: saline with Tween-80) 98 % of control; (dose: 20.0 mg/kg/injection, schedule: Q01DX001 (ip), vehicle: carboxymethylcellulose (CMC)) 96 % of control; (dose: 20.0 mg/kg/injection, schedule: Q01DX009 (ip), vehicle: saline with Tween-80) 112 % of control; (dose: 40.0 mg/kg/injection, schedule: Q01DX001 (ip), vehicle: carboxymethylcellulose (CMC)) 95 % of control; (dose: 80.0 mg/kg/injection, schedule: Q01DX001 (ip), vehicle: carboxymethylcellulose (CMC)) 96 % of control.
Regarding `Cc1c(Cl)cc(C(C)C)c(O)c1CN1CCOCC1`, the T/C was 96 % of control (dose: 222.0 mg/kg/injection, schedule: Q01DX Z (ip), vehicle: methylcellulose (MC)); 109 % of control (dose: 333.0 mg/kg/injection, schedule: Q01DX Z (ip), vehicle: methylcellulose (MC)); 102 % of control (dose: 500.0 mg/kg/injection, schedule: Q01DX Z (ip), vehicle: methylcellulose (MC)).
For the compound `COc1cccc(CN(C)CCC(=O)O)c1`, the T/C was 97 % of control (dose: 100.0 mg/kg/injection, schedule: Q01DX009 (ip), vehicle: saline); 105 % of control (dose: 100.0 mg/kg/injection, schedule: Q04DX003 (ip), vehicle: saline); 94 % of control (dose: 200.0 mg/kg/injection, schedule: Q01DX009 (ip), vehicle: saline); 109 % of control under setting [7]; 101 % of control (dose: 400.0 mg/kg/injection, schedule: Q01DX009 (ip), vehicle: saline); 105 % of control under setting [8].
